The record followed here is publication PMC3042376, “The elicitation of a systemic resistance by Pseudomonas putida BTP1 in tomato involves the stimulation of two lipoxygenase isoforms” (BMC Plant Biology, 2011).

This assay addresses T1, TomLOXF (Solanum lycopersicum, UniProt C0KKU8).
T1 construct: gene loxF; predicted chloroplast transit peptide (54 residues, ChloroP) excluded; N-terminal His tag of pET28-a kept; E. coli BL21; about 100 kDa; full precursor 903 residues; partially purified on nickel
T1 sequence (C0KKU8 55-902): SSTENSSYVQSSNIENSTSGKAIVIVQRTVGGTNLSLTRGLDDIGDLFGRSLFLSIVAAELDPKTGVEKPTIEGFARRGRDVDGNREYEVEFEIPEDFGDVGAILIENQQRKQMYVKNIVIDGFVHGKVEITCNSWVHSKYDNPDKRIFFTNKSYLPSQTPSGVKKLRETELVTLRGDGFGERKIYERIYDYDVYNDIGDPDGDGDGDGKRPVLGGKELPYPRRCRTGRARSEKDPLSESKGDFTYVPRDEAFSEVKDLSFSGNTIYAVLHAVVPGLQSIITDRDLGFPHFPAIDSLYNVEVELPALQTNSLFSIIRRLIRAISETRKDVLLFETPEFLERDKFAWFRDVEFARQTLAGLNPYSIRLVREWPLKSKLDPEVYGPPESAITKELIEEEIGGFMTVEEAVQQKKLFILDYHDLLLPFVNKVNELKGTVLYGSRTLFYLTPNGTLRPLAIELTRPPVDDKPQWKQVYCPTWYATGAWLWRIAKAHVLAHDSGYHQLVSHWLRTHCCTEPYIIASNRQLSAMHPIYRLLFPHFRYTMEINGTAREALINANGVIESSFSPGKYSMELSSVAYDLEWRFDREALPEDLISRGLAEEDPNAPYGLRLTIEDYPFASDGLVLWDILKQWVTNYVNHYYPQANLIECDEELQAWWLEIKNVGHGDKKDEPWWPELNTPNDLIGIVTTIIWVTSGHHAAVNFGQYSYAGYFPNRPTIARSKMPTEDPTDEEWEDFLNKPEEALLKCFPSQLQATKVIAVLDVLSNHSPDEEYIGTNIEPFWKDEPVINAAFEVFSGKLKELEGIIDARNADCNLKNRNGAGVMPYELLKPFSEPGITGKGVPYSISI
The assay is described as follows: hydroperoxide formation at […] nm; products by HPLC. The format is biochemical. The note with it: pH 6.0, room temperature, oxygenated phosphate buffer, partially purified enzyme.

`CCCCC/C=C\C/C=C\CCCCCCCC(=O)O` [C18:2, linoleic acid]: the “hydroperoxide formation at 234 nm; products by HPLC” value (product 13-HPOD, weaker substrate) is reported as “Partially-purified TOMLOXF showed a higher activity on linolenic acid than on linoleic acid”.
Turning to `CC/C=C\C/C=C\C/C=C\CCCCCCCC(=O)O` [C18:3, linolenic acid], the “hydroperoxide formation at 234 nm; products by HPLC” value (product 13-HPOT, preferred substrate) was “Partially-purified TOMLOXF showed a higher activity on linolenic acid than on linoleic acid”.
